Laboratory results published in patent publication US12473250B2, “Molecular design of new antibiotics and antibiotic adjuvants against MCR strains” (priority 2019, dated 2025).

Assays:
[1] = tested on: EC strains (CRE strains, colistin sensitive); assay: MIC of polymyxin B or colistin alone (Table 4); format: cell-based, E. coli; design: unit: μg/mL
Experimental: MIC experiments of the antimicrobial agents were determined by a modified broth microdilution method in accordance with the Clinical and Laboratory Standards Institute (CLSI) guidelines using 96 well culture plates. In brief, serial dilutions of all plates were prepared at different concentrations (μg). The inoculum suspension was prepared by adding isolated colonies from a 18-20 hours on TSA plate into phosphate buffer (0.31 mM, pH 7.2) or in water for injection (BBraun) and adjusting the suspension to a turbidity equivalent to 0.5 McFarland Standard. Each well contained a final bacterial concentration of approximately 5×10^5 colony forming units (CFU)/mL. The plate was covered and incubated at 35° C. for 24 hours. […] For the microdilution plates, turbidity in wells can be measured at OD600 using TECAN infinite M200Pro. MIC was determined as […] concentration that gives a 99 percent inhibition.

[2] = tested on: MCR positive E. coli Clinical isolate 6083655967; format: in vivo; details: neutropenic mice, i.p. 1 hour after infection, 6 hours after treatment; colistin 10 mg/kg, LC100 50 mg/kg, meropenem 100 mg/kg, combination 50 + 10 mg/kg
Experimental: FIG. 21 refers to graphs showing the efficacy testing of combination of LC100 and Colistin in neutropenic mouse thigh infection model infected with MCR positive E. coli Clinical isolate 6083655967. Starting inoculum was 1.87×10^6, N=3. “Combination” refers to Colistin 10 mg/kg+LC100 50 mg/kg. Each treatment was done intraperitoneally 1 hour after infection. 6 hours after treatment, mouse thigh tissues were homogenized for viable CFU.
The combination of colistin and antimicrobial peptide (LC100) was tested against E. coli clinical isolate MCR-positive strain 6083655967 in a neutropenic mouse thigh infection model. C57BL/6 mice were rendered neutropenic by cyclophosphamide, dosed at 150 and 100 mg kg-1 delivered on days −4 and −1 prior to infection. Bacteria were suspended in sterile saline and adjusted to a concentration of ˜1.876×10^6 CFU per infection site (100 micro-liters) and injected intramuscularly into the right thigh of five mice per treatment group. At 1 h post infection, mice received colistin ([…], i.p. n=5), LC100 (50 mg kg-1, i.p. n=5), untreated (n=5), or the combination (n=5). Mice were euthanized 6 h after infection; thigh tissue was aseptically collected, homogenized, serially diluted in PBS and plated onto solid TSA supplemented plates. Plates were incubated overnight at 37° C. and colonies were quantified to determine bacterial load.
To evaluate the in vivo efficacy of the combination of LC100 and colistin, a neutropenic mouse thigh infection model was used. 30 mice were classed into 5 groups: control, colistin at 10 mg/kg, LC100 at 50 mg/kg, meropenem at 100 mg/kg and combination of 50 mg/kg of LC100 and 10 mg/kg of colistin. Each treatment was administered intraperitoneally 1 hour after infection. The starting inoculum was 1.87×10^6, and 6 hours after treatment, mouse thigh tissues were homogenized for viable CFU. […] As neutropenic mice were used in the study, the 1.2 log reduction in bacterial burden is due to the combination of LC100 and colistin rather than the immune system of the mouse.

## Colistin
[1]; strain EC 17232
  MIC (antibiotic alone): 0.195
[1]; strain EC 17528
  MIC (antibiotic alone): 0.78
[1]; strain EC 19963
  MIC (antibiotic alone): 1.56
[2]
  reduction in bacterial burden: cannot reduce the bacterial burden
